According to patent US6369090B1, “Fungicidal mixture” (BASF Aktiengesellschaft, priority 1997, dated 2002):

Experiments:
Puccinia recondita = experiment: Curative action against Puccinia recondita on wheat (brown rust of wheat); type: in vivo; settings: single active ingredient, 7 days
Protocol: The active ingredients, separately or together, were formulated as a 10% emulsion in a mixture of 63% by weight of cyclohexanone and 27% by weight of emulsifier, and diluted with water to the desired concentration.
The expected efficacies of the mixtures of the active ingredients were determined using Colby's formula [R. S. Colby, Weeds 15, 20-22 (1967)] and compared with the observed efficacies.
Colby's formula: E=x+y−x·y/100
E expected efficacy, expressed in % of the untreated control, when using the mixture, disclosed in DE Appl. 19617232.2, of the active ingredients I and II (=active ingredient mixture A) and the active ingredients III at the concentrations a and c […]
x efficacy, expressed in % of the untreated control, when using a mixture, disclosed in DE Appl. 19617232.2, of the active ingredients I and II at a concentration of a y efficacy, expressed in % of the untreated control, when using active ingredient III at a concentration of c Curative action against Puccinia recondita on wheat (brown rust of wheat) Leaves of wheat seedlings cv. “Frühgold” which had been grown in pots were dusted with spores of brown rust (Puccinia recondita). The pots were then kept for 24 hours in a chamber of high atmospheric humidity (90 to 95%) at 20 to 22° C. During this time, the spores germinated and the germinal tubes penetrated into the leaf tissue. The next day, the infected plants were sprayed to runoff point with an aqueous preparation of active ingredient which had been prepared from a stock solution comprising 10% of active ingredient, 63% of cyclohexanone and 27% of emulsifier. After the spray coating had dried on, the test plants were cultivated in a greenhouse at temperatures from 20 to 22° C. and at 65 to 70% relative atmospheric humidity for 7 days. The extent of the rust fungus development on the leaves was then determined.
(§1) The visually determined values for the percentage of infected leaf area were converted into efficacies as percent of the untreated control. Efficacy 0 means the same disease level as in the untreated control, efficacy 100 means 0% disease. The expected efficacies for active ingredient combinations were determined using Colby's formula (Colby, S. R. “Calculating synergistic and antagonistic responses of herbicide combinations”, Weeds, 15, p. 20-22, 1967) and compared with the observed efficacies.

[1] = tested on: Erysiphe graminis forma specialis tritici; experiment: Activity against powdery mildew of wheat (protective, wheat seedlings cv. Frühgold); type: in vivo; settings: single active ingredient, 7 days
From the text: The active ingredients, separately or together, were formulated as a 10% emulsion in a mixture of 63% by weight of cyclohexanone and 27% by weight of emulsifier, and diluted with water to the desired concentration. […]
Activity against powdery mildew of wheat
Leaves of wheat seedlings cv. “Frühgold” which had been grown in pots were sprayed to runoff point with an aqueous preparation of active ingredient which had been prepared from a stock solution comprising 10% of active ingredient, 63% of cyclohexanone and 27% of emulsifier and, 24 hours after the spraycoating had dried on, dusted with spores of powdery mildew of wheat (Erysiphe graminis forma specialis tritici). The test plants were subsequently placed in a greenhouse at from 20 to 24° C. and a relative atmospheric humidity of 60 to 90%. After 7 days, the extent of mildew development was determined visually as percent infection of the total leaf area.
as §1

Row | SMILES | Efficacy in % of the untreated control (Puccinia recondita; 0.31 ppm in the spray liquor) [%] | Efficacy in % of the untreated control (Puccinia recondita; 1.25 ppm in the spray liquor) [%] | Efficacy in % of the untreated control ([1]; 0.31 ppm in the spray liquor) [%] | Efficacy in % of the untreated control ([1]; 1.25 ppm in the spray liquor) [%]
1 | CC(C)(C)C(O)(CCc1ccc(Cl)cc1)n1cncn1 (stereo not drawn) [III.27, 1-(4-chlorophenyl)-4,4-dimethyl-3-(1H-1,2,4-triazol-1yl)pentan-3-ol] | 0 | 0 | 8 | 39
2 | CCCN(CCOc1c(Cl)cc(Cl)cc1Cl)C(=O)n1ccnc1 [III.23, N-propyl-N-[(2,4,6-trichlorophenoxy)ethyl]imidazole-1-carboxamide] | 0 | 0 | 0 | 0
3 | C[Si](Cn1cncn1)(c1ccc(F)cc1)c1ccc(F)cc1 [III.12, bis-(4-fluorophenyl)(methyl)-(1H-1,2,4-triazol-1-ylmethyl)silane] | 0 | 0 | – | –
4 | CCCC1COC(Cn2cncn2)(c2ccc(Cl)cc2Cl)O1 (racemic) [III.24, (±)-1-{[2-(2,4-dichlorophenyl)-4-propyl-1,3-dioxolan-2-yl]methyl}-1H-1,2,4-triazole] | 0 | 0 | 8 | 8
5 | Fc1ccc([C@]2(Cn3cncn3)O[C@@H]2c2ccccc2Cl)cc1 (racemic) [III.8, (2RS, 3RS)-1-[3-(2-chlorophenyl)-2,3-epoxy-2-(4-fluorophenyl)propyl]-1H-1,2,4-triazole] | 0 | – | – | –
